Assay results taken from US20250235460A1, “COMBINATION THERAPY USING GLUCOSE-DEPENDENT INSULINOTROPIC POLYPEPTIDE RECEPTOR ANTAGONIST COMPOUNDS AND GLP-1 RECEPTOR AGONIST COMPOUNDS” (Pfizer Inc., priority 2024, published 2025).

Experiments:
human GLP-1R [1] = target: human GLP-1R (Homo sapiens, UniProt P43220, G168S); test: CHO GLP-1R Clone H6 cAMP HTRF agonist assay (Assay 1, high receptor density); assay type: cell-based; settings: for EC50: CHO GLP-1R clone H6, cAMP HTRF, geometric mean; for Emax: read-out: Assay 1 Emax (%)
In short: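 Averaging differs by parameter: a geometric mean for EC50 and an arithmetic mean for Emax, each over the stated replicate number.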

human GLP-1R [2] = target: human GLP-1R (Homo sapiens, UniProt P43220, L260F); test: CHO GLP-1R Clone C6 cAMP HTRF agonist assay (Assay 2, low receptor density); assay type: cell-based; settings: for EC50: CHO GLP-1R clone C6, cAMP HTRF, geometric mean
Source text: In Table 5 and Table 6, assay data are presented to two (2) significant figures as the geometric mean (EC50s) and arithmetic mean (Emax) based on the number of replicates listed (Number). A blank cell means there was no data for that Example or the Emax was not calculated.

[3] = CHO GLP-1R clone H6, arithmetic mean, relative to saturating GLP-1 (1 μM)
[4] = CHO GLP-1R clone C6, arithmetic mean, relative to saturating GLP-1 (1 μM)

Chain of human GLP-1R (Homo sapiens, UniProt P43220, G168S) (P43220 24-463 G168S): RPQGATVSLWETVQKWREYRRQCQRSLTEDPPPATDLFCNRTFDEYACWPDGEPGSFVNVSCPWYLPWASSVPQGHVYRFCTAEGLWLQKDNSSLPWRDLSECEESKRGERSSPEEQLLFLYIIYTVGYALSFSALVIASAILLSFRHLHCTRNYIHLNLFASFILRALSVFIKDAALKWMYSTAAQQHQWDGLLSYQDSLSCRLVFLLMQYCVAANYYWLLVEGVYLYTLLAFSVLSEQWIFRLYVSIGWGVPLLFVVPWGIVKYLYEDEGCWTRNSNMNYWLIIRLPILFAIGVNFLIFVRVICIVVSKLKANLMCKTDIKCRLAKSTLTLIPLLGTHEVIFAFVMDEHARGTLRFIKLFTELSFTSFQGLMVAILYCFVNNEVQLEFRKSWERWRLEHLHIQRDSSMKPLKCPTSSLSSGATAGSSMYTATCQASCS
Chain of human GLP-1R (Homo sapiens, UniProt P43220, L260F) (P43220 24-463 L260F): as the sequence (P43220 24-463 G168S) above, with S145G, L237F counted along it

| Compound | EC50 (human GLP-1R [1]) | Emax (human GLP-1R [1]; [3]) | EC50 (human GLP-1R [2]) | Emax (human GLP-1R [2]; [4]) | Assay 1 Emax (%) (human GLP-1R [1]; [3]) | Assay 2 Emax (%) (human GLP-1R [2]; [4]) |
| --- | --- | --- | --- | --- | --- | --- |
| C[C@H]1CN(c2cccc(OCc3ccc(C#N)cc3F)n2)CCN1Cc1nc2ccc(C(=O)O)nc2n1C[C@@H]1CCO1 [Compound 137B, 2-{[(2S)-4-{6-[(4-cyano-2-fluorobenzyl)oxy]pyridin-2-yl}-2-methylpiperazin-1-yl]methyl}-3-[(2S)-oxetan-2-ylmethyl]-3H-imidazo[4,5-b]pyridine-5-carboxylic acid] | 90 nM | 76% | 1800 nM | 89% |  |  |
| C[C@H]1CN(c2cccc(OCc3ccc(C#N)cc3)n2)CCN1Cc1nc2ccc(C(=O)O)cc2n1C[C@@H]1CCO1 [Compound 138B, 2-{[(2S)-4-{6-[(4-cyanobenzyl)oxy]pyridin-2-yl}-2-methylpiperazin-1-yl]methyl}-1-[(2S)-oxetan-2-ylmethyl]-1H-benzimidazole-6-carboxylic acid] |  |  |  |  | 95% | 89% |
| N#Cc1ccc(COc2cccc(C3CCN(Cc4nc5ccc(C(=O)O)cc5n4Cc4ncco4)CC3)n2)c(F)c1 [Compound 139B, 2-[(4-{6-[(4-cyano-2-fluorobenzyl)oxy]pyridin-2-yl}piperidin-1-yl)methyl]-1-(1,3-oxazol-2-ylmethyl)-1H-benzimidazole-6-carboxylic acid] | 150 nM | 74% | 1200 nM | 44% |  |  |
| N#Cc1ccc(COc2cccc(N3CCN(Cc4nc5ccc(C(=O)O)cc5n4Cc4ncco4)CC3)n2)c(F)c1 [Compound 140B, 2-[(4-{6-[(4-cyano-2-fluorobenzyl)oxy]pyridin-2-yl}piperazin-1-yl)methyl]-1-(1,3-oxazol-2-ylmethyl)-1H-benzimidazole-6-carboxylic acid] | 36 nM | 84% | 150 nM | 92% |  |  |
| N#Cc1ccc(COc2cccc(C3CCN(Cc4nc5ccc(C(=O)O)cc5n4Cc4cnco4)CC3)n2)c(F)c1 [Compound 141B, 2-[(4-{6-[(4-cyano-2-fluorobenzyl)oxy]pyridin-2-yl}piperidin-1-yl)methyl]-1-(1,3-oxazol-5-ylmethyl)-1H-benzimidazole-6-carboxylic acid] | 6 nM | 73% | 150 nM | 84% |  |  |
| N#Cc1ccc(COc2cccc(N3CCN(Cc4nc5ccc(C(=O)O)cc5n4Cc4cnco4)CC3)n2)c(F)c1 [Compound 142B, 2-[(4-{6-[(4-cyano-2-fluorobenzyl)oxy]pyridin-2-yl}piperazin-1-yl)methyl]-1-(1,3-oxazol-5-ylmethyl)-1H-benzimidazole-6-carboxylic acid] | 9 nM | 82% | 170 nM | 85% |  |  |
| Cn1cncc1Cn1c(CN2CCC(c3cccc(OCc4ccc(Cl)cc4F)n3)CC2)nc2ccc(C(=O)O)cc21 [Compound 143B, 2-[(4-{6-[(4-chloro-2-fluorobenzyl)oxy]pyridin-2-yl}piperidin-1-yl)methyl]-1-[(1-methyl-1H-imidazol-5-yl)methyl]-1H-benzimidazole-6-carboxylic acid] | 140 nM | 72% | 1600 nM | 46% |  |  |
| Cn1nncc1Cn1c(CN2CCC(c3cccc(OCc4ccc(Cl)cc4F)n3)CC2)nc2ccc(C(=O)O)cc21 [Compound 144B, 2-[(4-{6-[(4-chloro-2-fluorobenzyl)oxy]pyridin-2-yl}piperidin-1-yl)methyl]-1-[(1-methyl-1H-1,2,3-triazol-5-yl)methyl]-1H-benzimidazole-6-carboxylic acid] | 5.8 nM | 72% | 94 nM | 76% |  |  |
| O=C(O)c1ccc2nc(CN3CCC(c4cccc(OCc5ccc(Cl)cc5F)n4)CC3)n(Cc3cnco3)c2c1 [Compound 145B, 2-[(4-{6-[(4-chloro-2-fluorobenzyl)oxy]pyridin-2-yl}piperidin-1-yl)methyl]-1-(1,3-oxazol-5-ylmethyl)-1H-benzimidazole-6-carboxylic acid] | 120 nM | 76% | 2200 nM | 83% |  |  |
| C[C@H]1CN(c2cccc(OCc3ccc(C#N)cc3F)n2)CCN1Cc1nc2ccc(C(=O)O)cc2n1Cc1ncco1 [Compound 146B, 2-{[(2S)-4-{6-[(4-cyano-2-fluorobenzyl)oxy]pyridin-2-yl}-2-methylpiperazin-1-yl]methyl}-1-(1,3-oxazol-2-ylmethyl)-1H-benzimidazole-6-carboxylic acid] | 43 nM | 82% | 680 nM | 110% |  |  |
| O=C(O)c1ccc2nc(CN3CCC(c4cccc(OCc5ccc(F)cc5F)n4)CC3)n(Cc3ncco3)c2c1 [Compound 149B, 2-[(4-{6-[(2,4-difluorobenzyl)oxy]pyridin-2-yl}piperidin-1-yl)methyl]-1-(1,3-oxazol-2-ylmethyl)-1H-benzimidazole-6-carboxylic acid] | 770 nM | 78% | > 15000 nM | 100% |  |  |
| CCn1cncc1Cn1c(CN2CCC(c3cccc(OCc4ccc(F)cc4F)n3)CC2)nc2ccc(C(=O)O)cc21 [Compound 150B, 2-[(4-{6-[(2,4-difluorobenzyl)oxy]pyridin-2-yl}piperidin-1-yl)methyl]-1-[(1-ethyl-1H-imidazol-5-yl)methyl]-1H-benzimidazole-6-carboxylic acid] | 110 nM | 71% | 3000 nM | 92% |  |  |
| O=C(O)c1ccc2nc(CN3CCN(c4cccc(OCc5ccc(Cl)cc5F)n4)CC3)n(Cc3ncco3)c2c1 [Compound 151B, 2-[(4-{6-[(4-chloro-2-fluorobenzyl)oxy]pyridin-2-yl}piperazin-1-yl)methyl]-1-(1,3-oxazol-2-ylmethyl)-1H-benzimidazole-6-carboxylic acid] | 22 nM | 87% | 280 nM |  |  |  |
| Cn1cncc1Cn1c(CN2CCN(c3cccc(OCc4ccc(Cl)cc4F)n3)CC2)nc2ccc(C(=O)O)cc21 [Compound 153B, 2-[(4-{6-[(4-chloro-2-fluorobenzyl)oxy]pyridin-2-yl}piperazin-1-yl)methyl]-1-[(1-methyl-1H-imidazol-5-yl)methyl]-1H-benzimidazole-6-carboxylic acid] | 24 nM | 76% | 1200 nM | 94% |  |  |
| Cn1cncc1Cn1c(CN2CCN(c3cccc(OCc4ccc(C#N)cc4F)n3)CC2)nc2ccc(C(=O)O)cc21 [Compound 154B, 2-[(4-{6-[(4-cyano-2-fluorobenzyl)oxy]pyridin-2-yl}piperazin-1-yl)methyl]-1-[(1-methyl-1H-imidazol-5-yl)methyl]-1H-benzimidazole-6-carboxylic acid] | 6 nM | 80% | 78 nM | 88% |  |  |
| O=C(O)c1ccc2nc(CN3CCC(c4cccc(OCc5ccc(Cl)cc5F)n4)CC3)n(Cc3cocn3)c2c1 [Compound 155B, 2-[(4-{6-[(4-chloro-2-fluorobenzyl)oxy]pyridin-2-yl}piperidin-1-yl)methyl]-1-(1,3-oxazol-4-ylmethyl)-1H-benzimidazole-6-carboxylic acid] | 7.9 nM | 80% | 150 nM | 100% |  |  |
| O=C(O)c1ccc2nc(CN3CCC(c4cccc(OCc5ccc(Cl)cc5F)n4)CC3)n(Cc3ncco3)c2c1 [Compound 156B, 2-[(4-{6-[(4-chloro-2-fluorobenzyl)oxy]pyridin-2-yl}piperidin-1-yl)methyl]-1-(1,3-oxazol-2-ylmethyl)-1H-benzimidazole-6-carboxylic acid] | 0.96 nM | 80% | 14 nM | 95% |  |  |
